Like-named read-outs stand apart in the source and are kept apart here.
Assays:
[1] = Dynamic vapor sorption (DVS) analysis; type: physicochemical
Protocol: Moisture sorption isotherms were collected on a DVS Adventure system from Surface Measurement Systems (London, UK). Sample size was circa 10 mg of solid material. A full sorption and desorption isotherm was recorded by varying the relative humidity from 40-95-0-40% in steps of 10% at a constant temperature of 25° C. Weight equilibration per step was set at dm/dt of 0.002%/min. Afterwards the sample was measured by HT-XRPD.

C57BL/6 mice [2] = test: Head-twitch response (HTR); type: in vivo, mouse; settings: i.p.
Protocol: C57BL/6 mice were treated with increasing doses of compounds as indicated via i.p. injection. Mice were placed inside a clear cylinder and video recorded for 10 min immediately after compound administration. Head-twitch was recorded by an individual blinded to treatment as a lateral, rhythmic shaking of the head distinct from grooming or vertical head nod. Data were plotted in GraphPad (v. 9). n≥3 animals per dose. Data are expressed as mean±SEM.

h5HT2a [3] = biological target: T1, h5HT2a (Homo sapiens, UniProt P28223); test: cell-based; type: cell-based; set-up: expressed in transfected cells; host or cells: CHO-K1
T1 sequence (P28223 whole entry): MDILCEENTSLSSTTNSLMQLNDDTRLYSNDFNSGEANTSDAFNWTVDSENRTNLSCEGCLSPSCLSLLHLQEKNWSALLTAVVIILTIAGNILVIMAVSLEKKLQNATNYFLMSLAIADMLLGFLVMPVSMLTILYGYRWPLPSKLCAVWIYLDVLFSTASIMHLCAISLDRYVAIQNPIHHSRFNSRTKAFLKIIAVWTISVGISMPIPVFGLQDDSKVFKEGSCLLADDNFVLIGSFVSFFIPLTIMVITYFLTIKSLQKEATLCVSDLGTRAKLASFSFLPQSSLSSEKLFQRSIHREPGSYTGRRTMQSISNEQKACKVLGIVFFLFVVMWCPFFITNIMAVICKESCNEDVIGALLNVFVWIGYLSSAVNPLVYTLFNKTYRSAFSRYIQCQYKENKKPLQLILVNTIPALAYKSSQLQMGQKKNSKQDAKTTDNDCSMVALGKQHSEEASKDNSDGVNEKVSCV
Protocol: Compound activity was quantified as βarrestin2 recruitment from CHO-K1 cells expressing h5HT2a and treated with 0.1 nM-10 μM compounds.
CHO-K1 cells express h5HT2a-smBIT and βarrestin2-lgBiT fusion proteins. When h5HT2a and βarrestin2 come into contact with one another the smBIT and IgBIT peptides complement each other to produce a complete NanoBit luciferase enzyme. When complete, the enzyme is able to catalyze the breakdown of the molecule coelenterazine to produce light. Emitted light levels are proportional to interactions between h5HT2a and βarrestin2. CHO-K1 cells were treated with between 0.1 nM-10 μM of each compound for 2 h, during which period chemiluminescence is recorded. Area under the curve data for cumulative chemiluminescence are then fit to a three-parameter non-linear regression to determine potency (EC50) and efficacy (Emax). Data were fit to a three-parameter non-linear regression in GraphPad (v. 9). n=3-13 independent experiments performed in duplicate or triplicate. Data are expressed as mean±SEM.

h5HT2a [4] = biological target: T1, h5HT2a; test: cell-based; type: cell-based; set-up: expressed in transfected cells; host or cells: CHO-K1 (AequoScreen line with aequorin in A1; membranes of stably expressing CHO-K1 cells in A3)
Protocol: AequoScreen CHO-K1 cells stably-expressing h5HT2a contain an aequorin protein that, when bound to Ca^2+, is able to catalyze the breakdown of the molecule coelenterazine to produce light. Emitted light levels are proportional to endoplasmic reticulum Ca^2+ release. CHO-K1 cells were treated with between 0.1 nM-10 μM of each compound for 1 min before chemiluminescence is recorded. Resulting data are then fit to a three parameter non-linear regression to determine potency (EC50) and efficacy (Emax). Data were fit to a three-parameter non-linear regression in GraphPad (v. 9). n=3-29 independent experiments performed in duplicate or triplicate. Data are expressed as mean±SEM.

C57BL/6 mice [5] = test: Catalepsy, bar holding assay; type: in vivo, mouse; settings: i.p., increasing doses, 10 min after administration
Protocol: (§1) Compound activity was quantified in C57BL/6 mice for catalepsy (10 min) (top), nociception in the tail flick latency test (15 min) (middle), and body temperature relative to baseline (20 min) (bottom).
(§2) C57BL/6 mice were treated with increasing doses of compounds as indicated via i.p. injection. Tests were as follows: Body temperature is taken before administration of the first dose of compound for baseline. Catalepsy—the bar holding assay, 10 min after compound administration. Mice are placed such that their forepaws clasp a 0.7 cm ring clamp positioned 4.5 cm above the surface of the testing space. The length of time the ring is held is recorded (sec). The trial is ended if the mouse turns its head or body, or makes 3 consecutive escape attempts, to a maximum of 60 sec. Nociception—15 min after compound administration the mouse's tail is placed in 52° C. water. Latency to remove the tail from water is recorded to a maximum of 20 sec. Body temperature—rectal thermometer 20 min after compound administration. Data were plotted in GraphPad (v. 9). n≥6 animals per dose. Data are expressed as mean±SEM.

C57BL/6 mice [6] = test: Nociception, tail flick latency test (52° C. water); type: in vivo, mouse; settings: i.p., increasing doses, 15 min after administration
Protocol: as §1, §2

C57BL/6 mice [7] = test: Body temperature relative to baseline (rectal thermometer); type: in vivo, mouse; settings: i.p., increasing doses, 20 min after administration
Protocol: as §1, §2

C57BL/6 mice [8] = test: Open field task (OFT); type: in vivo, mouse; settings: i.p., 30 min after administration; significant for movement and velocity, not time in center, at 7 or 10 mg/kg
Protocol: C57BL/6 mice were treated with increasing doses of compounds as indicated via i.p. injection. Mice are placed in the open field 30 min after compound administration. The open field measures 1 m×1 m and the test lasts for 5 min. Total distance travelled, velocity, and time spent in the central quadrant of the field are recorded and analyzed using Etho Vision XT (Noldus, v. 17). Data were plotted in GraphPad (v. 9). n≥4 animals per dose. Data are expressed as mean±SEM.

C57BL/6 mice [9] = test: Elevated plus maze (EPM); type: in vivo, mouse; settings: 3 mg/kg i.p., 30 min, preliminary
Protocol: Representative movement traces from Ethovision in male C57BL/6 mice (top, right).
C57BL/6 mice were treated 3 mg/kg of compounds via i.p. injection. Mice are placed in the EPM 30 min after compound administration. The EPM measures 1 m×1 m and the test lasts for 5 min. Total distance travelled, velocity, arm entries, and time in each arm are recorded and analyzed using EthoVision XT (Noldus, v. 17). Data were plotted in GraphPad (v. 9). n=3-5 animals per treatment. Data are expressed as mean±SEM.

h5HT2a [10] = biological target: T1, h5HT2a; test: biochemical; type: binding; set-up: expressed in transfected cells; host or cells: CHO-K1 (AequoScreen line with aequorin in A1; membranes of stably expressing CHO-K1 cells in A3); settings: 1 nM [3H]ketanserin, 0.1 nM-10 μM compound, 2 h
Protocol: CHO-K1 cells stably-expressing h5HT2a are grown, collected, and frozen at −80° C. Cells are thawed as needed and subjected to pressure cavitation using a Dounce homogenizer to rupture cell membranes. Cell membranes are then collected by subjecting cell lysates to high-speed centrifugation at 20,000×g for 30 min at 4° C. Homogenization and centrifugation are repeated to enrich the sample for receptor-containing cell membranes. CHO-K1 cell membranes are the co-incubated with 1 nM [^3H]ketanserin and between 0.1 nM-10 μM of each compound for 2 h. Samples are then pipetted onto filter paper before being rinsed and washed by vacuum filtration three times, dried, and incubated overnight in scintillation fluid. […] Resulting data are then fit to a three-parameter non-linear regression to determine affinity (Ki). […] Data are expressed as mean±SEM.

[11] = βarrestin2 recruitment, CHO-K1 h5HT2a

CCc1cc(/C(C)=N/OCc2ccc(C3CCCCC3)c(C(F)(F)F)c2)ccc1CN1CC(C(=O)O)C1.CCc1cc(/C(C)=N/OCc2ccc(C3CCCCC3)c(C(F)(F)F)c2)ccc1CN1CC(C(=O)O)C1.O=C(O)/C=C/C(=O)O [Crystalline Form A]
hygroscopicity according to the EP hygroscopicity classification ([1]; DVS, 25° C.): moderately hygroscopic | total mass difference between 0-95% RH ([1]; DVS, 25° C.): 3.6% | physical stability after the sorption-desorption cycle (XRPD) ([1]; solid recovered after DVS): physically stable

CCN(CC)C(=O)[C@@H]1C=C2c3cccc4[nH]cc(c34)C[C@H]2N(C)C1 [LSD]
time of peak head-twitch effect post-compound administration (C57BL/6 mice [2]; at several tested doses): around 7 min | Emax (%) ± S.E.M. (h5HT2a [3]): 100 ± 16% | Emax (%) ± S.E.M. (h5HT2a [4]): 100 ± 9.9%

CNCCc1c[nH]c2cccc(O)c12 [Norpsilocin]
Emax (%) ± S.E.M. (h5HT2a [3]; [11]): 2.9 ± 27% | Emax (%) ± S.E.M. (h5HT2a [4]; Ca2+ release, CHO-K1 h5HT2a): 45 ± 14%

CN(C)CCc1c[nH]c2cccc(O)c12 [Psilocin]
catalepsy (C57BL/6 mice [5]): do not produce catalepsy | pain perception (nociception) (C57BL/6 mice [6]): significantly reduces pain perception peaking at 1 mg/kg | body temperature (C57BL/6 mice [7]): dose-dependent hypothermia | head-twitch response (C57BL/6 mice [2]; 0-10 min after administration): time-dependent head-twitch response | movement, velocity and time in the center of the open field (C57BL/6 mice [8]): dose-dependent decrease in movement, velocity, and time in the center of the open field | closed arm time (C57BL/6 mice [9]; p=0.029, unpaired t-test): significantly reduces closed arm time | open arm time (C57BL/6 mice [9]; p=0.12, unpaired t-test): but not open arm time | arm entries (C57BL/6 mice [9]): no significant differences in arm entries | overall movement and velocity in EPM (C57BL/6 mice [9]): trend toward reduced overall movement and velocity | potency in Ca2+ release assay compared with βarrestin2 recruitment assay (h5HT2a [3]; comparison of the two h5HT2a assays): greater in the Ca^2+ release assay than the βarrestin2 recruitment assay | βarrestin2 recruitment activity (in words) (h5HT2a [3]; h5HT2a-dependent βarrestin2 recruitment): activator of βarrestin2 recruitment | Emax (h5HT2a [3]; [11]): 89 ± 22% | Emax (h5HT2a [4]; Ca2+ release, CHO-K1 h5HT2a): 89 ± 11% | Ca2+ release activity (in words) (h5HT2a [4]; h5HT2a-dependent Ca2+ release): potent activator of Ca^2+ release

CN(C)CCc1c[nH]c2cccc(OP(=O)(O)O)c12 [Psilocybin]
catalepsy (C57BL/6 mice [5]): do not produce catalepsy | Emax (h5HT2a [3]; [11]): -34 ± 5.9% | pEC50 ± S.E.M. (h5HT2a [3]; βarrestin2 recruitment, CHO-K1 h5HT2a, 0.1 nM-10 μM, 2 h, AUC): Not Converged | Emax (h5HT2a [4]; Ca2+ release, CHO-K1 h5HT2a): 69 ± 15% | EC50 (h5HT2a [4]; Ca2+ release, CHO-K1 h5HT2a, 0.1 nM-10 μM, 1 min): 1500 nM | Ki (h5HT2a [10]): 390 nM

Reference: US20250375420A1 (ZYLORION HEALTH INC., priority 2022, published 2025)
